Assay results as given in PubChem BioAssay (NCI).
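Each compound was tested at five concentrations against cells in 96-well plates for 48 hours. At the GI50, growth is halved. At the TGI there is no net growth.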

How the values were obtained:
Assay in all cases: NCI tumour cell line growth inhibition, 48 h
A498 renal = test system: A498 renal
A549 NSCLC = test system: A549 NSCLC
CAKI-1 renal = test system: CAKI-1 renal
CCRF-CEM leukemia = test system: CCRF-CEM leukemia
DU-145 prostate = test system: DU-145 prostate
EKVX NSCLC = test system: EKVX NSCLC
HOP-62 NSCLC = test system: HOP-62 NSCLC
HOP-92 NSCLC = test system: HOP-92 NSCLC
HS 578T breast = test system: HS 578T breast
K-562 leukemia = test system: K-562 leukemia
LOX IMVI melanoma = test system: LOX IMVI melanoma
MDA-MB-231 breast = test system: MDA-MB-231 breast
MDA-MB-435 = test system: MDA-MB-435
NCI-H226 lung = test system: NCI-H226 lung
NCI/ADR-RES ovarian = test system: NCI/ADR-RES ovarian
OVCAR-4 ovarian = test system: OVCAR-4 ovarian
OVCAR-5 ovarian = test system: OVCAR-5 ovarian
RPMI-8226 leukemia = test system: RPMI-8226 leukemia
SF-268 CNS = test system: SF-268 CNS
SK-MEL-2 melanoma = test system: SK-MEL-2 melanoma
SK-OV-3 ovarian = test system: SK-OV-3 ovarian
SNB-75 CNS = test system: SNB-75 CNS
SR leukemia = test system: SR leukemia
T-47D breast = test system: T-47D breast
TK-10 renal = test system: TK-10 renal
UACC-257 melanoma = test system: UACC-257 melanoma

Structure (SMILES): COc1cc(/C=C/C(=O)c2ccc(C)cc2)ccc1Oc1nc(NCCO)nc(N2CCOCC2)n1
- GI50 (A498 renal): > 100 µM
- TGI (A498 renal): > 100 µM
- GI50 (A549 NSCLC): 9.47 µM
- TGI (A549 NSCLC): > 100 µM
- GI50 (CAKI-1 renal): 5.02 µM
- TGI (CAKI-1 renal): > 100 µM
- GI50 (CCRF-CEM leukemia): 2.71 µM
- TGI (CCRF-CEM leukemia): > 100 µM
- GI50 (DU-145 prostate): 3.79 µM
- TGI (DU-145 prostate): > 100 µM
- GI50 (EKVX NSCLC): 3.9 µM
- TGI (EKVX NSCLC): > 100 µM
- GI50 (HOP-62 NSCLC): 16.6 µM
- TGI (HOP-62 NSCLC): > 100 µM
- GI50 (HOP-92 NSCLC): 8.4 µM
- TGI (HOP-92 NSCLC): > 100 µM
- GI50 (HS 578T breast): 4.6 µM
- TGI (HS 578T breast): > 100 µM
- GI50 (K-562 leukemia): 1.53 µM
- TGI (K-562 leukemia): > 100 µM
- GI50 (LOX IMVI melanoma): 0.43 µM
- TGI (LOX IMVI melanoma): 1.5 µM
- GI50 (MDA-MB-231 breast): 2.98 µM
- TGI (MDA-MB-231 breast): > 100 µM
- GI50 (MDA-MB-435): 3.31 µM
- TGI (MDA-MB-435): > 100 µM
- GI50 (NCI-H226 lung): 6.28 µM
- TGI (NCI-H226 lung): > 100 µM
- GI50 (NCI/ADR-RES ovarian): 2.08 µM
- TGI (NCI/ADR-RES ovarian): 4.57 µM
- GI50 (OVCAR-4 ovarian): 3.92 µM
- TGI (OVCAR-4 ovarian): > 100 µM
- GI50 (OVCAR-5 ovarian): 3.22 µM
- TGI (OVCAR-5 ovarian): > 100 µM
- GI50 (RPMI-8226 leukemia): 1.72 µM
- TGI (RPMI-8226 leukemia): 6.02 µM
- GI50 (SF-268 CNS): 2.9 µM
- TGI (SF-268 CNS): > 100 µM
- GI50 (SK-MEL-2 melanoma): 8.17 µM
- TGI (SK-MEL-2 melanoma): > 100 µM
- GI50 (SK-OV-3 ovarian): 23 µM
- TGI (SK-OV-3 ovarian): > 100 µM
- GI50 (SNB-75 CNS): > 100 µM
- TGI (SNB-75 CNS): > 100 µM
- GI50 (SR leukemia): 1.06 µM
- TGI (SR leukemia): 7.16 µM
- GI50 (T-47D breast): 2.98 µM
- TGI (T-47D breast): > 100 µM
- GI50 (TK-10 renal): > 100 µM
- TGI (TK-10 renal): > 100 µM
- GI50 (UACC-257 melanoma): 3.98 µM
- TGI (UACC-257 melanoma): > 100 µM
